From ChEMBL document CHEMBL1129105, “Synthesis and biological evaluation of N-(1-aziridino)-6-fluoro-quinolone-3-carboxylic acids” (1996)
≈ marks a conversion by molar mass, not a printed value.

How the values were obtained:
Staphylococcus aureus [1] = experiment: In vitro antibacterial activity of compound was measured against gram positive Staphylococcus aureus 1110 pen.rez.; type: functional
[2] = tested on: Mycobacterium tuberculosis; experiment: In vitro antibacterial activity of compound was measured against gram positive Mycobacterium tuberculosis H37Rv (human); type: functional
Escherichia coli [3] = experiment: In vitro antibacterial activity of compound was measured against gram negative Escherichia coli K12; type: functional
Salmonella typhimurium = experiment: In vitro antibacterial activity of compound was measured against gram negative Salmonella Typhimurium 51; type: functional, Salmonella enterica subsp. enterica serovar Typhimurium; details: Salmonella enterica
Proteus vulgaris = experiment: In vitro antibacterial activity of compound was measured against gram negative Proteus vulgaris XL; type: functional
Staphylococcus aureus [4] = experiment: In vitro antibacterial activity of compound was measured against gram positive Staphylococcus aureus SMITH; type: functional
Alcaligenes faecalis = experiment: In vitro antibacterial activity of compound was measured against gram negative Alcaligenes faecalis 140001; type: functional
Serratia marcescens = experiment: In vitro antibacterial activity of compound was measured against gram negative Serratia marcescens; type: functional
[5] = tested on: Mycobacterium tuberculosis; experiment: In vitro antibacterial activity of compound was measured against gram positive Mycobacterium tuberculosis Ravenel(bovin); type: functional
Clostridium perfringens = experiment: In vitro antibacterial activity of compound was measured against gram positive Clostridium perfringens 70500; type: functional
[6] = tested on: Acinetobacter calcoaceticus subsp. anitratus; experiment: In vitro antibacterial activity of compound was measured against gram negative Acinetobacter anitratus 150001; type: functional
Klebsiella pneumoniae = experiment: In vitro antibacterial activity of compound was measured against gram negative Klebsiella pneumoniae ATCC 10031; type: functional
Escherichia coli [7] = experiment: In vitro antibacterial activity of compound was measured against gram negative Escherichia coli 6R; type: functional
Streptococcus pyogenes [8] = experiment: In vitro antibacterial activity of compound was measured against gram positive Streptococcus pyogenes A 115 ROBB; type: functional
Streptococcus pyogenes [9] = experiment: In vitro antibacterial activity of compound was measured against gram positive Streptococcus pyogenes A 118; type: functional
Bacteroides fragilis = experiment: In vitro antibacterial activity of compound was measured against gram negative Bacteroides fragilis ATCC 25285; type: functional
[10] = tested on: Bordetella bronchiseptica; experiment: In vitro antibacterial activity of compound was measured against gram negative Bordetella bronchiseptica ATCC 4617; type: functional
Enterococcus faecalis = experiment: In vitro antibacterial activity of compound was measured against gram positive Streptococcus faecalis; type: functional
Pseudomonas aeruginosa = experiment: In vitro antibacterial activity of compound was measured against gram negative Pseudomonas pyocyanea NCTC 10490; type: functional, pseudomona pyocyanea
Shigella sonnei = experiment: In vitro antibacterial activity of compound was measured against gram negative Shigella sonnei; type: functional
Streptococcus pneumoniae = experiment: In vitro antibacterial activity of compound was measured against gram positive Streptococcus pneumoniae; type: functional
Proteus inconstans = experiment: In vitro antibacterial activity of compound was measured against gram negative Proteus inconstans NCTC 8055; type: functional; details: Providencia alcalifaciens
Bacillus subtilis = experiment: In vitro antibacterial activity of compound was measured against gram positive Bacillus subtilis ATCC 6633; type: functional

SMILES	MIC (Staphylococcus aureus [1])	MIC [2]	MIC (Escherichia coli [3])	MIC (Salmonella typhimurium)	MIC (Proteus vulgaris)	MIC (Staphylococcus aureus [4])	MIC (Alcaligenes faecalis)	MIC (Serratia marcescens)	MIC [5]	MIC (Clostridium perfringens)	MIC [6]	MIC (Klebsiella pneumoniae)	MIC (Escherichia coli [7])	MIC (Streptococcus pyogenes [8])	MIC (Streptococcus pyogenes [9])	MIC (Bacteroides fragilis)	MIC [10]	MIC (Enterococcus faecalis)	MIC (Pseudomonas aeruginosa)	MIC (Shigella sonnei)	further results
CN1CCN(c2c(F)cc3c(=O)c(C(=O)O)cn(N4CC4c4ccccc4)c3c2F)CC1 (stereo not given)	100 µg/mL (≈ 227 µM)	100 µg/mL (≈ 227 µM)	25 µg/mL (≈ 56.8 µM)	25 µg/mL (≈ 56.8 µM)	25 µg/mL (≈ 56.8 µM)	100 µg/mL (≈ 227 µM)	> 100 µg/mL	50 µg/mL (≈ 114 µM)	50 µg/mL (≈ 114 µM)	100 µg/mL (≈ 227 µM)	> 100 µg/mL	12.5 µg/mL (≈ 28.4 µM)	> 100 µg/mL	50 µg/mL (≈ 114 µM)	> 100 µg/mL	> 100 µg/mL	100 µg/mL (≈ 227 µM)	> 100 µg/mL	> 100 µg/mL	6.2 µg/mL (≈ 14.1 µM)	MIC (Streptococcus pneumoniae): 25 µg/mL (≈ 56.8 µM); MIC (Proteus inconstans): 50 µg/mL (≈ 114 µM); MIC (Bacillus subtilis): 100 µg/mL (≈ 227 µM)
CN1CCN(c2c(F)cc3c(=O)c(C(=O)O)cn(N4CC4c4ccc(F)cc4)c3c2F)CC1 (stereo not given)	> 100 µg/mL	100 µg/mL (≈ 218 µM)	12.5 µg/mL (≈ 27.3 µM)	25 µg/mL (≈ 54.5 µM)	25 µg/mL (≈ 54.5 µM)	> 100 µg/mL	> 100 µg/mL	25 µg/mL (≈ 54.5 µM)	50 µg/mL (≈ 109 µM)	100 µg/mL (≈ 218 µM)	> 100 µg/mL	12.5 µg/mL (≈ 27.3 µM)	> 100 µg/mL	100 µg/mL (≈ 218 µM)	> 100 µg/mL	> 100 µg/mL	> 100 µg/mL	> 100 µg/mL	> 100 µg/mL	12.5 µg/mL (≈ 27.3 µM)	MIC (Streptococcus pneumoniae): 50 µg/mL (≈ 109 µM); MIC (Proteus inconstans): 25 µg/mL (≈ 54.5 µM); MIC (Bacillus subtilis): > 100 µg/mL
CN1CCN(c2cc3c(cc2F)c(=O)c(C(=O)O)cn3N2CC2c2ccccn2)CC1 (stereo not given)	100 µg/mL (≈ 236 µM)	50 µg/mL (≈ 118 µM)	100 µg/mL (≈ 236 µM)	100 µg/mL (≈ 236 µM)	> 100 µg/mL	50 µg/mL (≈ 118 µM)	> 100 µg/mL	100 µg/mL (≈ 236 µM)	25 µg/mL (≈ 59 µM)	50 µg/mL (≈ 118 µM)	> 100 µg/mL	50 µg/mL (≈ 118 µM)	100 µg/mL (≈ 236 µM)	50 µg/mL (≈ 118 µM)	50 µg/mL (≈ 118 µM)	50 µg/mL (≈ 118 µM)	100 µg/mL (≈ 236 µM)	100 µg/mL (≈ 236 µM)	100 µg/mL (≈ 236 µM)	12.5 µg/mL (≈ 29.5 µM)	MIC (Streptococcus pneumoniae): 25 µg/mL (≈ 59 µM); MIC (Proteus inconstans): > 100 µg/mL; MIC (Bacillus subtilis): 50 µg/mL (≈ 118 µM)
CN1CCN(c2cc3c(cc2F)c(=O)c(C(=O)O)cn3N2CC2c2ccc(F)cc2)CC1 (stereo not given)	25 µg/mL (≈ 56.8 µM)	12.5 µg/mL (≈ 28.4 µM)	50 µg/mL (≈ 114 µM)	50 µg/mL (≈ 114 µM)	100 µg/mL (≈ 227 µM)	25 µg/mL (≈ 56.8 µM)	100 µg/mL (≈ 227 µM)	100 µg/mL (≈ 227 µM)	6.2 µg/mL (≈ 14.1 µM)	6.2 µg/mL (≈ 14.1 µM)	50 µg/mL (≈ 114 µM)	6.2 µg/mL (≈ 14.1 µM)	100 µg/mL (≈ 227 µM)	10 µg/mL (≈ 22.7 µM)	25 µg/mL (≈ 56.8 µM)	25 µg/mL (≈ 56.8 µM)	12.5 µg/mL (≈ 28.4 µM)	25 µg/mL (≈ 56.8 µM)	100 µg/mL (≈ 227 µM)	25 µg/mL (≈ 56.8 µM)	MIC (Streptococcus pneumoniae): 5 µg/mL (≈ 11.4 µM); MIC (Proteus inconstans): 100 µg/mL (≈ 227 µM); MIC (Bacillus subtilis): 10 µg/mL (≈ 22.7 µM)
CN1CCN(c2cc3c(cc2F)c(=O)c(C(=O)O)cn3N2C3CCCCC32)CC1 (stereo not given)	50 µg/mL (≈ 125 µM)	6.2 µg/mL (≈ 15.5 µM)	50 µg/mL (≈ 125 µM)	25 µg/mL (≈ 62.4 µM)	50 µg/mL (≈ 125 µM)	50 µg/mL (≈ 125 µM)	100 µg/mL (≈ 250 µM)	50 µg/mL (≈ 125 µM)	3.1 µg/mL (≈ 7.74 µM)	100 µg/mL (≈ 250 µM)	12.5 µg/mL (≈ 31.2 µM)	0.8 µg/mL (≈ 2 µM)	100 µg/mL (≈ 250 µM)	100 µg/mL (≈ 250 µM)	100 µg/mL (≈ 250 µM)	25 µg/mL (≈ 62.4 µM)	25 µg/mL (≈ 62.4 µM)	> 100 µg/mL	100 µg/mL (≈ 250 µM)	12.5 µg/mL (≈ 31.2 µM)	MIC (Streptococcus pneumoniae): 100 µg/mL (≈ 250 µM); MIC (Proteus inconstans): 100 µg/mL (≈ 250 µM); MIC (Bacillus subtilis): 3.1 µg/mL (≈ 7.74 µM)
